According to patent publication US8288552B2, “Dihydropyridone amidesas P2X7 modulators” (Roche Palo Alto LLC, priority 2008, dated 2012):

Molecular target: T1, P2X7 (UniProt Q99572)
T1 sequence (Q99572 1-595): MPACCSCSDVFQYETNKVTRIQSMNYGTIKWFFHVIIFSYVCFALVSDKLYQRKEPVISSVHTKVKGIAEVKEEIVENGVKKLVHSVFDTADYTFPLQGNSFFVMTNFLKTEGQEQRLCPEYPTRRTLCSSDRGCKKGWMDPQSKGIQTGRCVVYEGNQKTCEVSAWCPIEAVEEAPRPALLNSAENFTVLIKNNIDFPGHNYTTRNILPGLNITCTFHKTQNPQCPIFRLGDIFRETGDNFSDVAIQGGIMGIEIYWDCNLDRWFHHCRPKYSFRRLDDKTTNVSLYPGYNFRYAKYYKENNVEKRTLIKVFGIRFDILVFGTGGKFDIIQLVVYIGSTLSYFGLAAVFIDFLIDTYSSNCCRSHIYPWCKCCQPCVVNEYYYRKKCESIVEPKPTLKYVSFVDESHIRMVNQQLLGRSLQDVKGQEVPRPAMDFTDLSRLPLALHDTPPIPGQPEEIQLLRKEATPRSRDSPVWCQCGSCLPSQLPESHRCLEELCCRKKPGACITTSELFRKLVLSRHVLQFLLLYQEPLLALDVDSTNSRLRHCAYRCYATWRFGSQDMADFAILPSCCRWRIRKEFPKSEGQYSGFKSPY
Assay: P2X7 pKi of Table 1
Type: cell-based
Procedure, shortened: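 Human P2X7 in 1321N1 cells and rat P2X7 in HEK293 cells, loaded with fluo-3 for 1 hr at 37° C, then exposed to antagonist for 20 min at room temperature. BzATP agonist was used at 100 μM final (human) or 5 μM final (rat), with fluorescence read for 5 min. The response was normalized to maximal fluorescence evoked by 5 μM ionomycin.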

| Compound | pKi |
| --- | --- |
| COc1ccc(NC(=O)C2=CNC(=O)C[C@H]2c2ccc(F)cc2)c(C)c1 [Compound 111, (S)-4-(4-Fluoro-phenyl)-6-oxo-1,4,5,6-tetrahydro-pyridine-3-carboxylic acid(4-methoxy-2-methyl-phenyl)-amide] | 6.5 |
| Cc1cc(Cl)c(CCO)cc1NC(=O)C1=CNC(=O)C[C@H]1c1ccc(F)cc1 [Compound 112, (S)-4-(4-Fluoro-phenyl)-6-oxo-1,4,5,6-tetrahydro-pyridine-3-carboxylic acid[4-chloro-5-(2-hydroxy-ethyl)-2-methyl-phenyl]-amide] | 7.52 |
| Cc1cc(C)c(OCCO)cc1NC(=O)C1=CNC(=O)C[C@H]1c1ccc(F)cc1 [Compound 114, (S)-4-(4-Fluoro-phenyl)-6-oxo-1,4,5,6-tetrahydro-pyridine-3-carboxylic acid [5-(2-hydroxy-ethoxy)-2,4-dimethyl-phenyl]-amide] | 7.815 |
| Cc1c(C#N)cccc1NC(=O)C1=CNC(=O)C[C@H]1c1ccc(F)cc1 [Compound 115, (S)-4-(4-Fluoro-phenyl)-6-oxo-1,4,5,6-tetrahydro-pyridine-3-carboxylic acid(3-cyano-2-methyl-phenyl)-amide] | 5.815 |
| Cc1cc(Cl)c(OCC(C)O)cc1NC(=O)C1=CNC(=O)C[C@H]1c1cccc(F)c1 (stereo partly drawn) [Compound 116, (S)-4-(3-Fluoro-phenyl)-6-oxo-1,4,5,6-tetrahydro-pyridine-3-carboxylic acid[4-chloro-5-(2-hydroxy-propoxy)-2-methyl-phenyl]-amide] | 7.21 |
| Cc1cc(Cl)c(OCC(C)O)cc1NC(=O)C1=CNC(=O)C[C@H]1c1cccc(F)c1 (stereo partly drawn) [Compound 117, (S)-4-(3-Fluoro-phenyl)-6-oxo-1,4,5,6-tetrahydro-pyridine-3-carboxylic acid[4-chloro-5-(2-hydroxy-propoxy)-2-methyl-phenyl]-amide] | 7.06 |
| Cc1ccc(C(C)O)cc1NC(=O)C1=CNC(=O)C[C@H]1c1cccc(F)c1 (stereo partly drawn) [Compound 119, (S)-4-(3-Fluoro-phenyl)-6-oxo-1,4,5,6-tetrahydro-pyridine-3-carboxylic acid[5-(1-hydroxy-ethyl)-2-methyl-phenyl]-amide] | 7.2 |
| Cc1ccc(NC(=O)C2=CNC(=O)C[C@H]2c2cccc(F)c2)cc1C(C)O (stereo partly drawn) [Compound 120, (S)-4-(3-Fluoro-phenyl)-6-oxo-1,4,5,6-tetrahydro-pyridine-3-carboxylic acid[3-(1-hydroxy-ethyl)-4-methyl-phenyl]-amide] | 6.635 |
| Cc1c(NC(=O)C2=CNC(=O)C[C@H]2c2ccc(F)cc2)cc(OCCO)c(F)c1F [Compound 121, (S)-4-(4-Fluoro-phenyl)-6-oxo-1,4,5,6-tetrahydro-pyridine-3-carboxylic acid [3,4-difluoro-5-(2-hydroxy-ethoxy)-2-methyl-phenyl]-amide] | 7.41 |
| CCc1cc(Cl)c(OCCO)cc1NC(=O)C1=CNC(=O)C[C@H]1c1ccc(F)cc1 [Compound 123, (S)-4-(4-Fluoro-phenyl)-6-oxo-1,4,5,6-tetrahydro-pyridine-3-carboxylic acid[4-chloro-2-ethyl-5-(2-hydroxy-ethoxy)-phenyl]-amide] | 7.293 |
| Cc1cc(Cl)c(CN(CCO)CCO)cc1NC(=O)C1=CNC(=O)C[C@H]1c1ccc(F)cc1 [Compound 124, (S)-4-(4-Fluoro-phenyl)-6-oxo-1,4,5,6-tetrahydro-pyridine-3-carboxylic acid(5-{[bis-(2-hydroxy-ethyl)-amino]-methyl}-4-chloro-2-methyl-phenyl)-amide] | 6.75 |
| COc1cc(C)c(NC(=O)C2=C(C)NC(=O)CC2c2ccc(C(F)(F)F)cc2)cc1OC (centres unmarked) [Compound 127, 2-Methyl-6-oxo-4-(4-trifluoromethyl-phenyl)-1,4,5,6-tetrahydro-pyridine-3-carboxylic acid(4,5-dimethoxy-2-methyl-phenyl)-amide] | 5.055 |
| O=C1C[C@@H](c2ccc(F)cc2)C(C(=O)Nc2cccc(Cl)c2Cl)=CN1 [Compound 128, (S)-4-(4-Fluoro-phenyl)-6-oxo-1,4,5,6-tetrahydro-pyridine-3-carboxylic acid (2,3-dichloro-phenyl)-amide] | 6.75 |
| Cc1cc(Cl)c(NC(=O)C2=CNC(=O)C[C@H]2c2ccc(F)cc2)cc1OCCO [Compound 129, (S)-4-(4-Fluoro-phenyl)-6-oxo-1,4,5,6-tetrahydro-pyridine-3-carboxylic acid[2-chloro-5-(2-hydroxy-ethoxy)-4-methyl-phenyl]-amide] | 7.265 |
| Cc1ccc(C(N)=O)cc1NC(=O)C1=CNC(=O)C[C@H]1c1ccc(F)cc1 [Compound 135, (S)-4-(4-Fluoro-phenyl)-6-oxo-1,4,5,6-tetrahydro-pyridine-3-carboxylic acid(5-carbamoyl-2-methyl-phenyl)-amide] | 5.8767 |
| O=C1CC(c2ccccc2)C(C(=O)NC2CCc3ccccc32)=CN1 (centres unmarked) [Compound 136, 6-Oxo-4-phenyl-1,4,5,6-tetrahydro-pyridine-3-carboxylic acid indan-1-ylamide] | 5.412 |
| O=C1CC(c2cccc(F)c2)C(C(=O)Nc2cc3c(cc2Cl)OC(F)(F)O3)=CN1 (centres unmarked) [Compound 137, 4-(3-Fluoro-phenyl)-6-oxo-1,4,5,6-tetrahydro-pyridine-3-carboxylic acid(6-chloro-2,2-difluoro-benzo[1,3]dioxol-5-yl)-amide] | 4.98 |
| O=C1CC(c2ccc(F)cc2)C(C(=O)Nc2cc3c(cc2Br)OCCO3)=CN1 (centres unmarked) [Compound 138, 4-(4-Fluoro-phenyl)-6-oxo-1,4,5,6-tetrahydro-pyridine-3-carboxylic acid(7-bromo-2,3-dihydro-benzo[1,4]dioxin-6-yl)-amide] | 6.69 |
| O=C1CC(c2ccc(F)cc2)C(C(=O)Nc2cc3c(cc2Cl)OC(F)(F)O3)=CN1 (centres unmarked) [Compound 139, 4-(4-Fluoro-phenyl)-6-oxo-1,4,5,6-tetrahydro-pyridine-3-carboxylic acid(6-chloro-2,2-difluoro-benzo[1,3]dioxol-5-yl)-amide] | 5.46 |

The next lines start with the values.

| pKi | Compound |
| --- | --- |
| 8.035 | COc1cc(C)c(C)c(NC(=O)C2=CNC(=O)C[C@H]2c2ccc(F)cc2)c1 [Compound 113, (S)-4-(4-Fluoro-phenyl)-6-oxo-1,4,5,6-tetrahydro-pyridine-3-carboxylic acid(5-methoxy-2,3-dimethyl-phenyl)-amide] |
| 7.075 | CCc1cc(Cl)c(OC)cc1NC(=O)C1=CNC(=O)C[C@H]1c1ccc(F)cc1 [Compound 118, (S)-4-(4-Fluoro-phenyl)-6-oxo-1,4,5,6-tetrahydro-pyridine-3-carboxylic acid(4-chloro-2-ethyl-5-methoxy-phenyl)-amide] |
| 6.465 | COc1cc(C)c(NC(=O)C2=CNC(=O)CC2c2ccc(Cl)cc2)cc1OC (centres unmarked) [Compound 122, 4-(4-Chloro-phenyl)-6-oxo-1,4,5,6-tetrahydro-pyridine-3-carboxylic acid(4,5-dimethoxy-2-methyl-phenyl)-amide] |
| 7.645 | COC(=O)COc1cc(NC(=O)C2=CNC(=O)C[C@H]2c2ccc(F)cc2)c(C)cc1Cl [Compound 125, (2-Chloro-5-{[(S)-4-(4-fluoro-phenyl)-6-oxo-1,4,5,6-tetrahydro-pyridine-3-carbonyl]-amino}-4-methyl-phenoxy)-acetic acid methyl ester] |
| 6.48 | COc1cc(C)c(NC(=O)C2=C(C)NC(=O)CC2c2ccc(F)cc2)cc1OC (centres unmarked) [Compound 126, 4-(4-Fluoro-phenyl)-2-methyl-6-oxo-1,4,5,6-tetrahydro-pyridine-3-carboxylic acid (4,5-dimethoxy-2-methyl-phenyl)-amide] |
| 7.2767 | Cc1cc(Cl)c(OCC(=O)N(C)C)cc1NC(=O)C1=CNC(=O)C[C@H]1c1ccc(F)cc1 [Compound 130, (S)-4-(4-Fluoro-phenyl)-6-oxo-1,4,5,6-tetrahydro-pyridine-3-carboxylic acid(4-chloro-5-dimethylcarbamoyl-methoxy-2-methyl-phenyl)-amide] |
| 6.165 | COc1cc(C)c(NC(=O)C2=CNC(=O)C[C@H]2c2ccc(Cl)cc2)cc1OC [Compound 131, (S)-4-(4-Chloro-phenyl)-6-oxo-1,4,5,6-tetrahydro-pyridine-3-carboxylic acid (4,5-dimethoxy-2-methyl-phenyl)-amide] |
| 6.38 | COc1cc(C)c(NC(=O)C2=CNC(=O)C[C@@H]2c2ccc(Cl)cc2)cc1OC [Compound 132, (R)-4-(4-Chloro-phenyl)-6-oxo-1,4,5,6-tetrahydro-pyridine-3-carboxylic acid (4,5-dimethoxy-2-methyl-phenyl)-amide] |
| 6.04 | COc1ccc(NC(=O)C2=CNC(=O)C[C@H]2c2ccc(F)cc2)cc1OC [Compound 133, (S)-4-(4-Fluoro-phenyl)-6-oxo-1,4,5,6-tetrahydro-pyridine-3-carboxylic acid (3,4-dimethoxy-phenyl)-amide] |
| 6.24 | CNC(=O)COc1cc(NC(=O)C2=CNC(=O)C[C@H]2c2ccc(F)cc2)c(C)cc1Cl [Compound 134, (S)-4-(4-Fluoro-phenyl)-6-oxo-1,4,5,6-tetrahydro-pyridine-3-carboxylic acid(4-chloro-2-methyl-5-methylcarbamoylmethoxy-phenyl)-amide] |
